Data as given in the NIST ThermoML archive (doi:10.1021/acs.jced.6b00202).

COC(C)(C)C [2-methoxy-2-methylpropane]
Liquid, Brillouin light scattering
Settings | speed of sound [m/s]
303.11 K, 7000 kPa | 1078.5
303.12 K, 10000 kPa | 1093.4
303.13 K, 1000 kPa | 1023.2
303.15 K, 2500 kPa | 1035.3
303.15 K, 8500 kPa | 1086.9
303.2 K, 4000 kPa | 1045.4
303.2 K, 5500 kPa | 1058.1
308.06 K, 2500 kPa | 1018.4
308.11 K, 10000 kPa | 1080
308.12 K, 4000 kPa | 1025.3
308.13 K, 5500 kPa | 1037.2
308.13 K, 8500 kPa | 1064.6
308.23 K, 1000 kPa | 1003.3
308.24 K, 7000 kPa | 1052.5
313.09 K, 1000 kPa | 975
313.1 K, 2500 kPa | 990.3
313.13 K, 7000 kPa | 1034.7
313.15 K, 4000 kPa | 1007
313.17 K, 10000 kPa | 1051.6
313.2 K, 5500 kPa | 1018.3
313.24 K, 8500 kPa | 1049
318.06 K, 8500 kPa | 1020.1
318.07 K, 1000 kPa | 959.3
318.18 K, 7000 kPa | 1012.5
318.22 K, 4000 kPa | 985.3
318.23 K, 2500 kPa | 971.4
318.24 K, 5500 kPa | 996.7
318.25 K, 10000 kPa | 1040
323.07 K, 10000 kPa | 1016.8
323.12 K, 8500 kPa | 1006.1
323.14 K, 7000 kPa | 987.9
323.15 K, 1000 kPa | 932.5
323.18 K, 2500 kPa | 947.7
323.21 K, 5500 kPa | 982.2
323.25 K, 4000 kPa | 964.9
328.06 K, 7000 kPa | 971.9
328.08 K, 1000 kPa | 917
328.11 K, 2500 kPa | 926.2
328.13 K, 8500 kPa | 984.6
328.14 K, 5500 kPa | 963.3
328.16 K, 4000 kPa | 942.5
328.19 K, 10000 kPa | 991.7
333.08 K, 1000 kPa | 893.5
333.08 K, 2500 kPa | 904.6
333.12 K, 4000 kPa | 920.6
333.18 K, 10000 kPa | 978.4
333.2 K, 5500 kPa | 941.5
333.21 K, 7000 kPa | 949.1
333.22 K, 8500 kPa | 967.6
338.09 K, 1000 kPa | 867.8
338.11 K, 7000 kPa | 931.3
338.11 K, 8500 kPa | 941
338.16 K, 5500 kPa | 922.2
338.17 K, 10000 kPa | 954.4
338.22 K, 4000 kPa | 898.7
338.23 K, 2500 kPa | 884.4
343.15 K, 7000 kPa | 911.8
343.18 K, 8500 kPa | 926.4
343.19 K, 4000 kPa | 883.2
343.19 K, 5500 kPa | 892.8
343.2 K, 1000 kPa | 845.4
343.22 K, 2500 kPa | 868.6
343.24 K, 10000 kPa | 941
348.1 K, 5500 kPa | 874.9
348.12 K, 7000 kPa | 890.7
348.16 K, 4000 kPa | 858.5
348.16 K, 8500 kPa | 907.4
348.17 K, 10000 kPa | 915.3
348.22 K, 1000 kPa | 829.7
348.22 K, 2500 kPa | 844.7
353.05 K, 5500 kPa | 858.5
353.1 K, 7000 kPa | 868.9
353.11 K, 10000 kPa | 903.3
353.2 K, 2500 kPa | 825.4
353.22 K, 4000 kPa | 841.4
353.23 K, 8500 kPa | 889.4
353.25 K, 1000 kPa | 800
358.08 K, 7000 kPa | 852.1
358.09 K, 5500 kPa | 835.6
358.14 K, 8500 kPa | 866.9
358.15 K, 1000 kPa | 779.2
358.18 K, 10000 kPa | 883.2
358.19 K, 2500 kPa | 802.1
358.19 K, 4000 kPa | 816.3
363.06 K, 1000 kPa | 761.1
363.09 K, 2500 kPa | 775.4
363.09 K, 5500 kPa | 811.7
363.14 K, 7000 kPa | 833.6
363.18 K, 8500 kPa | 844.2
363.23 K, 4000 kPa | 796.3
363.24 K, 10000 kPa | 863.5
368.06 K, 5500 kPa | 796.6
368.08 K, 10000 kPa | 844.9
368.13 K, 7000 kPa | 813
368.15 K, 1000 kPa | 734.3
368.16 K, 4000 kPa | 777
368.21 K, 8500 kPa | 831.5
368.25 K, 2500 kPa | 754.9
373.07 K, 1000 kPa | 713.9
373.07 K, 10000 kPa | 828.1
373.11 K, 8500 kPa | 811.5
373.12 K, 5500 kPa | 770.2
373.16 K, 4000 kPa | 753.8
373.17 K, 2500 kPa | 733.6
373.24 K, 7000 kPa | 791.5
378.06 K, 4000 kPa | 732.9
378.07 K, 5500 kPa | 751.9
378.07 K, 7000 kPa | 770.5
378.13 K, 2500 kPa | 711.8
378.13 K, 8500 kPa | 791.5
378.22 K, 1000 kPa | 691.3
378.25 K, 10000 kPa | 804
383.07 K, 1000 kPa | 666.2
383.08 K, 4000 kPa | 713
383.12 K, 2500 kPa | 690.6
383.13 K, 7000 kPa | 753.8
383.15 K, 8500 kPa | 769.5
383.18 K, 5500 kPa | 731.2
383.21 K, 10000 kPa | 789.5
388.09 K, 5500 kPa | 711.4
388.16 K, 7000 kPa | 730.1
388.2 K, 4000 kPa | 690

Settings | speed of sound [m/s]
303.19 K, Liquid, Brillouin Light Scattering | 1024.7
308.16 K, Liquid, Brillouin Light Scattering | 988.6
313.08 K, Liquid, Brillouin Light Scattering | 960.4
318.19 K, Liquid, Brillouin Light Scattering | 942.7
323.07 K, Liquid, Brillouin Light Scattering | 912.4
328.21 K, Liquid, Brillouin Light Scattering | 904.7
333.13 K, Liquid, Brillouin Light Scattering | 876.8
338.07 K, Liquid, Brillouin Light Scattering | 855.1
343.12 K, Liquid, Brillouin Light Scattering | 826.3
348.24 K, Liquid, Brillouin Light Scattering | 797.5
353.11 K, Liquid, Brillouin Light Scattering | 781.5
358.22 K, Liquid, Brillouin Light Scattering | 748.6
363.16 K, Liquid, Brillouin Light Scattering | 727.1
368.17 K, Liquid, Brillouin Light Scattering | 707.1
373.05 K, Liquid, Brillouin Light Scattering | 698.9
378.05 K, Liquid, Brillouin Light Scattering | 668.3
378.1 K, Gas, Brillouin light scattering | 171.6
383.08 K, Liquid, Brillouin Light Scattering | 646.4
388.11 K, Liquid, Brillouin Light Scattering | 627.5
388.2 K, Gas, Brillouin light scattering | 170.9
